Patent US20040005648A1, “PYK2 related products and methods” (Sugen, Inc., priority 1994, published 2004)
“Also recorded” adds a separate entry of the source. Read-outs that look alike come from different tables or passages of the source.

Tests used:
Shc = assay: Tyrosine phosphorylation of Shc in stimulated PC12 cells (anti-Shc immunoprecipitation, anti-phosphotyrosine immunoblot); type: cell-based, rat; conditions: for effect on carbachol induced tyrosine phosphorylation of Shc: antagonist
Description: Tyrosine phosphorylation of Shc in response to bradykinin, carbachol, PMA and other stimuli was also measured. Quiescent PC12 cells were stimulated for 5 min at 37° C. with bradykinin (1AM), carbachol (1 mM), KC1 (75 mM), PMA (1.6pM), NGF (100 ng/ml), or left unstimulated (−). The cells were also stimulated with carbachol (1 mM) or potassium chloride (75 mM) in the presence of 3 mM EGTA. Stimulations with DMPP (100 μM) or muscarine (1 mM) were preformed under the same conditions. […] The Shc proteins were immunoprecipitated with anti-Shc antibodies, the immunoprecipitates were resolved by SDS-PAGE (8%1, transferred to nitrocellulose and immunoblotted with anti-phosphotyrosine antibodies.

PYK2 [1] = assay: Tyrosine phosphorylation of PYK2 in stimulated PC12 cells (anti-PYK2 immunoprecipitation, anti-phosphotyrosine immunoblot); type: cell-based, rat
PYK2 [2] = assay: Tyrosine phosphorylation of PYK2 in transiently transfected 293 cells; type: cell-based, human; conditions: PMA 1.6 μM, calcium ionophore 6 μM
Description: We examined the possibility whether PYK2 can tyrosine phosphorylate the Kv1.2 channel and regulate its function. In order to test this possibility, we expressed in 293 cells the Kv1.2 protein, Kv1.2 together with PYK2, and as a control Kv1.2 with a kinase negative PYK2 mutant (PKN) or with the protein tyrosine kinase Fak. The cells were grown for 24 hours in medium containing 0.2% serum and then stimulated with PMA (1.6 μM), calcium ionophore (6 μM), or left unstimulated.
Embryonic human kidney 293 cells were transiently transfected with different combinations of mammalian expression vectors which direct the synthesis of Kv1.2-HA, PYK2, a kinase negative PYK2 (PKN) or the protein tyrosine kinase Fak. The cells were grown for 24 h in the presence of 0.2% serum and then either stimulated with PMA (1.6 μM, 10 min at 37° C.), the calcium ionophore A23187 (6 μM, 10 min at 37° C.) or left unstimulated (−).
Tyrosine phosphorylation of each protein was analysed following immunoprecipitation and immunoblotting with anti-phosphotyrosine antibodies. The expression of each protein was determined by immunoblot analysis of total cell lysates from each transfection with anti-PYK2, anti-HA or anti-Fak antibodies.

Kv1.2 potassium channel = assay: Tyrosine phosphorylation of Kv1.2 potassium channel in 293 cells coexpressing PYK2; type: cell-based, human; conditions: 293 cells coexpressing Kv1.2-HA and PYK2; PMA 1.6 μM, calcium ionophore 6 μM
Kv1.2 channel [3] = assay: Kv1.2 currents in microinjected Xenopus oocytes, two microelectrode voltage-clamp; type: cell-based, Xenopus laevis; conditions: for inhibition of outward current: 8 min after addition of 100 nM PMA
Description: In vitro capped RNA transcripts of Kv1.2, PYK2 and PKN were synthesized from linearized plasmids DNA templates utilizing the mMESSAGE MMACHINE kit (Ambion), following the supplier's protocols. The products of the transcription reaction (cRNAs) were diluted in RNAse-free water and stored at −70° C. Expression of the RNAs was done by injection of 50nl of RNA into defolliculated stage V and VI oocytes from Xenopus laevis (Iverson et al., J. Neurosc. 10, 2903-2916, 1990). The injected oocytes were incubated for 2-3 days at 20° C. in L15 solution (1:2 dilution of Gibco's Leibovitz L15 medum in H20, with 50U/ml nystatin, 0.1 mg/ml gentamycin, 30 mM HEPES buffer, pH 7.3-7.4, filtered through a […] membrane). Electrophysiological Recording and analysis. Ionic currents were recorded with a two microelectrode voltage-clamp as described (Iverson et al., suDra). The current were low-pass filtered KHz using an 8-pole Bessel filter and stored in a 80286 microcomputer using the pclamp acquisition system (Axon Instruments). The data was analyzed with the clamp fit pro-rams of the pCIamp system (Axon Instruments). All recording were performed at room temperature ([…]). The recording chamber was continually perfused with recording solution. To avoid contamination of the oocyte by Ca+^2-activated Cl^− currents low Cl^− recording solution was used (96 mM Na+, glutamate, 2 mM K^+ glutamate, 0.5 mM CaCl2, 5 mM MgCl2, 5 mM HEPES buffer). The K^+ currents were elicited in depolarizinc, steps from −100 to +40 mv in 10 mV increments every 15 seconds.
Kv1.2 currents from oocytes microinjected with either Kv1.2 mRNA, Kv1.2 and PYK2 mRNAs, or Kv1.2 and a kinase negative mutant of PYK2 mRNAs (PKN). Currents were elicited in response to depolarizing steps from −100 to +30 mV increments from a holding potential of −110 mV. Representative traces of Kv1.2 channels before and after bath application of 100 nM PMA at the annotated time (8 and 20 minutes) in the same cell.
Suppression of Kv1.2 currents in response to PMA is blocked by a kinase negative PYK2 mutant (PKN). […]

Kv1.2 channel [4] = conditions: after 20 min incubation; as previously shown (Huang et al.); cited from earlier work
PYK-2 = assay: Tyrosine phosphorylation of PYK-2 in NIH3T3 cell lines that overexpress PYK-2; type: cell-based, mouse; conditions: NIH3T3 cells overexpressing PYK-2 / PYK-2-HA; TPA 6 μM, 15 min at 37° C.
Description: Stable cell lines of NIH3T3 that overexpress PYK2 were established by contransfection of PYK2 subcloned into pLSV together with pSV2neo utilizing lipofectamine reagent (GIBCO BRL). Following transfection the cells were grown in Dulbecco's modified Eagle's medium containing 10% fetal bovine serum and 1 mg/ml G418. Transient transfections into 293 cells were performed by using the calcium phosphate technique (*).
The PYK-2 cDNA cloned in PLSV was cotransfected with pSV2neo into PC12 cells and NIH3T3 in order to establish stable cell lines. G418 resistant colonies were screened by immunoprecipitating and immunoblotting.
NIH3T3 cell lines were established that overexpress the PYK-2 and the PYK-2-HA protein. […] The level of phosphorylation is not so high.

[5] = PC12 cells, agent alone, 37° C., b373: TPA 15 min, bradykinin 1 μM 1 min, A23187 2 μM 15 min, KCl 75 mM

## C[N+]1(C)CCN(c2ccccc2)CC1.[I-] [DMPP, 1,1-dimethyl-4-phenyl piperazinium iodide]
Shc
  tyrosine phosphorylation of Shc in response to the agent: induced phosphorylation of Shc

## O=C(O)CN(CCOCCOCCN(CC(=O)O)CC(=O)O)CC(=O)O [EGTA, ethyleneglycol-bis (P-aminoethyl ether)-N,N,N′N′-teraacetic acid]
PYK2 [1]; PC12 cells, elimination of extracellular calcium, EGTA 3 mM
  effect on agonist (carbachol) induced tyrosine phosphorylation of PYK2: completely blocked agonist induced tyrosine phosphorylation of PYK2

## [Cl-].[K+] [KCl, potassium chloride]
PYK2 [1]; [5]
  tyrosine phosphorylation of PYK2 in response to the agent: induces rapid tyrosine phosphorylation of PYK2

## CCCCCCCCCCCCCC(=O)O[C@@H]1[C@@H](C)[C@@]2(O)[C@@H](C=C(CO)C[C@]3(O)C(=O)C(C)=C[C@@H]23)[C@@H]2C(C)(C)[C@]12OC(C)=O [PMA, phorbol 12-myristate 13-acetate]
PYK2 [2]
  tyrosine phosphorylation of PYK2 in response to the agent: induced tyrosine phosphorylation
PYK2 [1]; PC12 cells pretreated with 100 nM PMA for 12 h
  effect of prolonged PMA treatment (down-regulation of PKC) on the agent-stimulated tyrosine phosphorylation of PYK2: completely abolished the effect of PMA
PYK2 [1]; [5]
  tyrosine phosphorylation of PYK2 in response to the agent: induced tyrosine phosphorylation of PYK2
PYK2 [1]; PC12 cells, agent alone, 37° C., b373: TPA 15 min, bradykinin 1 μM 1 min, A23187 2 μM 15 min, KCl 75 mM, listed as TPA
  tyrosine phosphorylation of PYK2 in response to the agent: undergoes tyrosine phosphorylation
Kv1.2 potassium channel
  tyrosine phosphorylation of Kv1.2: enhanced
Kv1.2 channel [3]; oocytes coexpressing Kv1.2 and PYK2
  inhibition of outward current: 95%
Kv1.2 channel [3]; oocytes expressing Kv1.2 alone
  inhibition of outward current: 25%
Kv1.2 channel [3]; oocytes expressing Kv1.2
  effect on Kv1.2 currents: caused inhibition of Kv1.2 currents
Kv1.2 channel [4]
  inhibition of Kv1.2 currents: 80-90%

## CN1[C@@H]2CC[C@H]1C[C@@H](OC(=O)C(CO)c1ccccc1)C2 (stereo partly drawn) [atropine]
Shc
  effect on carbachol induced tyrosine phosphorylation of Shc: had no effect

## CNc1ccc2oc(C[C@H]3O[C@@]4(CC[C@H]3C)O[C@H]([C@H](C)C(=O)c3ccc[nH]3)[C@H](C)C[C@H]4C)nc2c1C(=O)O [calcium ionophore A23187]
PYK2 [2]
  tyrosine phosphorylation of PYK2 in response to the agent: induced a weaker response
PYK2 [1]; [5]
  tyrosine phosphorylation of PYK2 in response to the agent: undergoes tyrosine phosphorylation; also recorded: PYK2 is phosphorylated on tyrosine residues
Kv1.2 potassium channel
  tyrosine phosphorylation of Kv1.2: enhanced

## C[N+](C)(C)CCOC(N)=O [carbachol]
Shc; transient, followed by a rapid decline
  time of maximum tyrosine phosphorylation of Shc: one
PYK2 [1]; PC12 cells
  time after applying the agent at which PYK2 became phosphorylated on tyrosine residues: 5 s
PYK2 [1]; [5]
  tyrosine phosphorylation of PYK2 in response to the agent: induces strong, tyrosine phosphorylation of PYK2

## CNC1(C)C2CCC(C2)C1(C)C (stereo not drawn) [mecamylamine]
Shc
  effect on carbachol induced tyrosine phosphorylation of Shc: blocked the effect of carbachol

## C[C@@H]1O[C@H](C[N+](C)(C)C)C[C@H]1O [muscarine]
Shc
  tyrosine phosphorylation of Shc in response to the agent: had no effect

## Cholera toxin
PYK2 [1]
  effect on the PYK-2 tyrosine phosphorylation response to TPA / bradykinin: gave higher signal in combination with TPA and bradykinin
  tyrosine phosphorylation of PYK2 in response to the agent: didn't cause phosphorylation of PYK-2 alone

## PDGF
PYK-2
  tyrosine phosphorylation of PYK-2 in response to the agent: undergoes tyrosine phosphorylation

## Pertusis toxin: toxin known to positively regulate G-coupled receptor signalling
PYK2 [1]; [5]
  tyrosine phosphorylation of PYK2 in response to the agent: didn't cause any response alone
PYK2 [1]; PC12 cells, agent in combination with TPA or bradykinin
  effect on the PYK-2 tyrosine phosphorylation response to TPA / bradykinin: induced the response of TPA and bradykinin

## aFGF: growth factor stimulus
PYK-2
  tyrosine phosphorylation of PYK-2 in response to the agent: undergoes tyrosine phosphorylation
